Patent EP0113632A1, “Process for the preparation of halogen methylates of levallorphane, and peripheral narcotic antagonist pharmaceutical compositions containing them” (SANOFI S.A., priority 1982, dated 1984)

Legend:
[1] = test system: effet analgésique de la morphine; experiment: Hot plate test: antagonism of the analgesic effect of morphine; assay type: in vivo, souris; settings: for ED50: Mus musculus, sc, read-out: Antagonisme à l'effet analgésique DI50a; for ED50 / Antagonisme à l'effet analgésique DI50a: female mice, s.c. 5 min before morphine 24 mg/kg s.c., hot plate 30 min after morphine, dose inhibiting the effect by 50 %, extrapolated from log dose-response regression, limits in parentheses; for DI50a/DI50c: ratio of DI50 for the analgesic effect (hot plate) to DI50 for the constipating effect (charcoal meal)
Protocol: L'antagonisme à l'effet analgésique de la morphine a été évalué selon le test classique pour l'analgésie de la plaque chauffante (Eddy et Leibach, J. Pharmacol. 1953, 107, 385, modifié par Janseen et Jagenau, J. Pharm. Pharmacol. 1957, 9, 381-400). Ce test est très sensible pour l'action des antogonistes des opiacés.
On utilise des souris femelles de 18 à 22 g. Les substances sont administrées en solution physiologique (20 ml/kg) par voie sous-cutanée 5 minutes avant l'administration de la morphine (24 mg/kg s.c.). Trente minutes après la morphine, on place les animaux sur la plaque chauffante et l'on évalue le temps de réaction des animaux qui présentent la réaction nocicéptive (léchage des pattes).
(§1) L'activité des substances à activité antagoniste périphérique des narcotiques est évaluée sur la base de l'inhibition pour cent de l'effet constipant et de l'effet analgésique de la morphine. La dose qui inhibe de 50 % lesdits effets (DI50c pour l'effet constipant et […] pour l'effet analgésique) a été extrapolée de la droite de régression log dose-réponse en appliquant l'analyse de la variance par régression linéaire.

[2] = test system: effet constipant de la morphine; experiment: Charcoal meal intestinal transit test (Green, modified): antagonism of the constipating effect of morphine; assay type: in vivo, souris; settings: for ED50: Mus musculus, sc, read-out: Antagonisme à l'effet constipant DI50c; for ED50 / Antagonisme à l'effet constipant DI50c: female mice fasted 20 h, s.c. 5 min before morphine 12 mg/kg s.c. and charcoal meal, sacrifice after 30 min, dose inhibiting the effect by 50 %, extrapolated from log dose-response regression, limits in parentheses
Protocol: L'antagonisme à l'effet constipant de la morphine des halomèthylates de lévallorphan de la présente invention a été évalué selon le test décrit par A.F. Green (Pr. J. Pharmacol. Chemother. 1959, 14, 26), opportunément modifié.
On utilise trois groupes de souris femelles de 20 g environ à jeun depuis 20 heures. A un groupe témoin, on administre par voie orale un repas constitué par 0,2 ml d'un mélange de gomme arabique 5 % (6 ml), farine (2 g) et charbon (1 g). Au deuxième groupe on administre par la voie sous-cutanée 12 mg/kg de morphine et, immédiatement après, le repas au charbon ci-dessus. Le troisième groupe est traité par l'antagoniste sous examen par voie sous-cutanée, puis, après 5 minutes, par 12 mg/kg de morphine par voie sous-cutanée et, tout de suite après, par le repas au charbon. Après trente minutes, les animaux sont sacrifiés pour l'évaluation de la portion intestinale parcourue par le charbon, exprimée en pour cent de la longueur totale de l'intestin grèle.
as §1

Compound	ED50 [1] [mg/kg]	DI50a/DI50c [1]	ED50 [2] [mg/kg]	Antagonisme à l'effet analgésique DI50a [1]	activité antagoniste, périphérique ou centrale ([2]; conclusion in words, covers both the constipation and the analgesia test)	Antagonisme à l'effet constipant DI50c [2]	activité par rapport à celle du bromoallylate de lévallorphan ([2]; test of antagonism of the constipating effect of morphine, fold higher activity) [fois]
C=CC[N+]1(C)CCC23c4c5ccc(O)c4OC2C(O)C=CC3C1C5 (single isomer, unassigned) [bromométhylate de nalorphine]	8.6	2,32	3.7	–	–	–	–
C=CC[N+]1(C)CC[C@]23CCCC[C@H]2[C@H]1Cc1ccc(O)cc13 (single isomer, unassigned) [iodoallylate de lévorphanol]	–	–	–	50 mg/kg	inactif	50 mg/kg	–
C=CC[N+]1(C)CC[C@]23CCCC[C@H]2[C@H]1Cc1ccc(O)cc13 (single isomer, unassigned) [iodométhylate de lévallorphan]	50	6,7	–	–	–	7,6 mg/kg (4,5 - 13,0)	> 2
C=CC[N+]1(CC=C)CC[C@]23CCCC[C@H]2[C@H]1Cc1ccc(O)cc13 [bromoallylate de lévallorphan]	15.2	0,97	15.6	–	–	–	–
C=CCN1CC[C@]23c4c5ccc(O)c4O[C@H]2C(=O)CC[C@@]3(O)[C@H]1C5 [naloxone, N-allyl-noroxymorphone]	0.06	0,08	0.8	–	–	–	–
C=CC[N+]1(C)CCC23c4c5ccc(O)c4OC2C(=O)CCC3(O)C1C5.COS(=O)(=O)[O-] (stereo not drawn) [sulfométhylate de naloxone]	–	–	–	1,6 mg/kg (0,7 - 3,6)	–	5,8 mg/kg (2,9 - 11,5)	–
